In patent US20070033677A1, “Plant sHSP gene bidirectional promoter and uses thereof” (National Taiwan University, priority 2005, published 2007):

Legend:
Oshsp17.3 promoter = experiment: Transient expression GUS activity assay, Oshsp17.3 promoter::GUS construct bombarded to rice coleoptiles; format: cell-based, Rice (Oryza sativa L. cv. Tainung No. 67); conditions: 5 mM Aze, 4 hours treatment; GUS normalized against luciferase internal control; FIG. 3A
Description: (§1) The coleoptile of a etiolated rice seedling was cut from embryonic root and positioned on the middle of a 10-cm Petri dish containing MS salts supplemented with 0.6% (w/v) agarose and 3% (w/v) sucrose. The mixture (in a 1:1 molar ratio) of a test DNA construct and a maize ubiquitin-luciferase internal control construct were coated onto the gold particles as follows: under continuous vortexing, the following were added in order to each […] of 3 mg gold particles (Shen et al., 1996): 5 μL of DNA (1 μg DNA), 10 μL of 2.5 M CaCl2, and 4 μL of 0.1 M spermidine (free-based, tissue-culture grade). Gold microcarriers (1.6-μm particle size, 30 mg) in a microcentrifuge tube were vortexed with […] 70% (v/v) ethanol for 3˜5 minutes and kept till precipitation for about 15 minutes. Then, after centrifuging for 5 seconds, the supernatant was discarded and washed three times with 1 ml of sterile de-ionized water. The gold particles were resuspended in 500 μL 50% (w/v) glycerol, and then dispensed in 50-μL aliquots (3 mg/50 μL) kept in −20° C. The gold particles coated with DNA were pelleted in an bench-top Eppendorf centrifuge at maximum speed for 5 seconds, discarded the supernatant, washed once with 70% (v/v) ethanol following by absolute ethanol, and resuspended in 20 μL absolute ethanol. […]

Oshsp18.0 promoter = experiment: Transient expression GUS activity assay, Oshsp18.0 promoter::GUS construct bombarded to rice coleoptiles; format: cell-based, Rice (Oryza sativa L. cv. Tainung No. 67); conditions: 5 mM Aze, 4 hours treatment; GUS normalized against luciferase internal control; FIG. 3A
Description: as §1

[1] = system: bidirectional promoter of SEQ ID NO:5; conditions: 5% ethanol treatment; control coleoptiles under 28° C.; FIG. 3B
Description: as §1

SMILES	induction of promoter (normalized GUS activity) (Oshsp17.3 promoter)	induction of promoter (normalized GUS activity) (Oshsp18.0 promoter)	expression of reporter gene (GUS staining) [1]
O=C(O)C1CCN1 (stereo not drawn) [Aze]	at least 7 fold	at least 7 fold	
CCO [ethanol]			much more amount of reporter gene
